Results: patent US6140364A, “Arachidonic acid metabolite, 16-HETE” (The University of Vermont and State Agricultural College, priority 1996, dated 2000)

Columns and labels:
[1] = test system: intact canine and human neutrophils; settings: cited from earlier work
[2] = test system: formation of product A by human neutrophils; test: Inhibition of arachidonic acid metabolism (formation of product A) in intact human neutrophils; type: cell-based; settings: SKF 525A 100 μM, BW755C 94 μM, 10 min preincubation
Procedure: Preparation of human polymorphonuclear leukocytes: Venous blood (60-70 ml) was collected from four healthy, normal volunteers into syringes containing heparin (1 U/ml). Polymorphonuclear leukocytes (PMNs) were isolated by a histopaque density gradient technique as previously described in Liu et al., Adhesion, Its role in Inflammatory Disease, Freeman and Co., New York, 1992, pp 189-192. Briefly, blood aliquots (6 ml) were layered over two layers (3 ml) of histopaque 1077 and 1119 in a conical centrifuge tube. The sample was then subjected to centrifugation at 100× g for 30 minutes at room temperature and the top layer, containing the neutrophils, was carefully collected. Hypotonic lysis was used to separate out the red blood cells. […] Total cells were counted using a hemocytometer and leukocytes were counted after staining with Wright-Giemsa stain. For each experiment, the cell preparations used contain ≥97% neutrophils, having ≥95% viability as determined by a trypan blue exclusion assay. […]
After ten minutes in arachidonic acid the reaction was terminated by the addition of cold methanol (four volumes). […] The effluent was passed through a UV detector (HP1050/ChemStation-Hewlett-Packard, Palo Alto, Calif.) and a radioactivity detector (Radiomatic, Meridian, Conn.) with a splitter (ratio 1:10) and collected in 1 ml fractions.

[3] = test system: human neutrophils; test: Agonist activity on human neutrophils; type: cell-based; settings: ≤20 μM
[4] = test system: thrombin-stimulated human neutrophils (adhesion to a gelatin matrix); test: Neutrophil adhesion to gelatin matrix, thrombin-stimulated; type: cell-based; settings: for inhibition at 1 µM: Homo sapiens, Neutrophil, thrombin 1 U/ml, 3×10^6 cells/ml, 10 min preincubation
Procedure: (§1) Preparation of human polymorphonuclear leukocytes: Venous blood (60-70 ml) was collected from four healthy, normal volunteers into syringes containing heparin (1 U/ml). Polymorphonuclear leukocytes (PMNs) were isolated by a histopaque density gradient technique as previously described in Liu et al., Adhesion, Its role in Inflammatory Disease, Freeman and Co., New York, 1992, pp 189-192. Briefly, blood aliquots (6 ml) were layered over two layers (3 ml) of histopaque 1077 and 1119 in a conical centrifuge tube. The sample was then subjected to centrifugation at 100× g for 30 minutes at room temperature and the top layer, containing the neutrophils, was carefully collected. Hypotonic lysis was used to separate out the red blood cells. The neutrophils were then isolated from the sample by centrifugation (2000× g) and suspended in Hanks balanced salt solution (HBSS) containing 1 mM Ca^2+ and 0.8 mM Mg^2+ for studies involving arachidonic acid metabolism, and in M199 (with 1% BSA) for neutrophil adhesion assays. Total cells were counted using a hemocytometer and leukocytes were counted after staining with Wright-Giemsa stain. For each experiment, the cell preparations used contain ≥97% neutrophils, having ≥95% viability as determined by a trypan blue exclusion assay.
Neutrophil adhesion: Isolated neutrophils were resuspended in M199 containing 1% BSA with a final concentration of 3×10^6 cells per ml. Cells suspensions (1 ml) were incubated with or without a test compound, 16(S)-HETE, 16(R)-HETE, or 20-HETE (concentrations 1 nM to 10 μM) for 10 min and then placed into gelatin-coated wells and further incubated for 20 min at 37° C. The wells were washed three times with 0.5 ml of solution M199 to remove non-adherent cells. The adherent cells were then removed by addition of 0.4 ml of 0.25% trypsin-EDTA in 0.1 M PBS to the gelatin-coated wells and incubation for 10 min at 37° C. […] The amount of cells in combined solutions was counted. […] The inhibition of adhesion was expressed as percent of cells remaining in suspension (non-adherent) relative to control. […]

[5] = test system: oxygen free radicals (OFR) release stimulated by fMLP; test: fMLP-stimulated oxygen free radical (OFR) release, chemiluminescence, in diluted human blood; type: cell-based; settings: 10 min, 1 μM HETE, fMLP 5×10^-7 M, N = 3 to 4, read-out: OFR Release (percent of inhibition from HETE untreated cells)
Procedure: (§2) Neutrophil activity: Stimulated neutrophil aggregation and oxygen free radical release were examined in whole human blood using a whole-blood aggregometer-chemiluminometer (Chronolog, Haverton, Pa.) as described Bednar et al. J. Thromb. Thrombol. 1, 179-185 (1995). Blood samples containing heparin (1 U/ml) as the anticoagulant were diluted in HBSS in proportion 1 to 9. Diluted blood aliquots (1 ml) were stirred (400 rpm) in a prewarmed (37° C.) siliconized cuvette containing cytochalasin b (5 μg/ml) and luminol (in 8 μl DMSO, 500 μM final concentration) and the test HETE (concentration 0.01 to 10 μM) for 10 min. Neutrophils were stimulated with a submaximal dose of FMLP (5×10^-7 M final concentration). The aggregation and chemiluminescence were simultaneously measured as changes of impedance and luminescence respectively. The fMLP-induced chemiluminescence was calculated as the peak height of the reaction.

[6] = test system: basal human neutrophils (adhesion to a gelatin matrix); test: Neutrophil adhesion to gelatin matrix, basal (unstimulated); type: cell-based; settings: for inhibition at 1 µM: Homo sapiens, Neutrophil, 10 min preincubation; for inhibition of neutrophil adhesion, basal: 20-HETE at ≤10 μM, 16-HETE isomers 10^-8 to 10^-5 M; for potency of neutrophil inhibition relative to the other stereoisomer: unstimulated and stimulated neutrophils
Procedure: as §1
Neutrophil adhesion: Isolated neutrophils were resuspended in M199 containing 1% BSA with a final concentration of 3×10^6 cells per ml. Cells suspensions (1 ml) were incubated with or without a test compound, 16(S)-HETE, 16(R)-HETE, or 20-HETE (concentrations 1 nM to 10 μM) for 10 min and then placed into gelatin-coated wells and further incubated for 20 min at 37° C. The wells were washed three times with 0.5 ml of solution M199 to remove non-adherent cells. The adherent cells were then removed by addition of 0.4 ml of 0.25% trypsin-EDTA in 0.1 M PBS to the gelatin-coated wells and incubation for 10 min at 37° C. The incubates were transferred and the wells were washed with 0.1 ml of M199 solution. The amount of cells in combined solutions was counted. In some experiments, the adhesion of neutrophils was stimulated by addition of 1 U/ml of thrombin to neutrophil suspension immediately prior to the transfer of cells to the wells. Experiments were performed in duplicates for each concentration of HETE. The inhibition of adhesion was expressed as percent of cells remaining in suspension (non-adherent) relative to control. The range of adherent PMNs in control incubations was 6 to 23%. This was increased two-fold in the presence of thrombin.

[7] = test system: neutrophil aggregation stimulated by fMLP; test: fMLP-induced neutrophil aggregation in diluted whole human blood; type: cell-based; settings: for inhibition at 1 µM: 10 min, 1 μM HETE, N = 3 to 4, read-out: Aggregation (percent of inhibition from HETE untreated cells); for inhibition of fMLP-induced neutrophil aggregation: ≤10 μM
Procedure: as §2

[8] = test system: platelet or other leukocyte; test: Platelet or other leukocyte activity or function
[9] = test system: neutrophil aggregation; test: Neutrophil aggregation (inventors' finding, method not given at the place); type: cell-based
[10] = Neutrophil, fMLP 5×10^-7 M, diluted human blood

For `CCCC(C(=O)OCCN(CC)CC)(c1ccccc1)c1ccccc1` [SKF525A], the “inhibition of formation of polar arachidonic acid metabolites” value [1] is listed as “formation can be inhibited” and the “inhibition of formation of product A” value [2] is listed as “can be inhibited with SKF525A”.

For `NC1=NN(c2cccc(C(F)(F)F)c2)CC1` [BW755C], the “inhibition of formation of product A” value [2] was “not with BW755C”.

With `CCCC[C@@H](O)/C=C\C/C=C\C/C=C\C/C=C\CCCC(=O)O` [16(R)-HETE, 16(R)-hydroxy-5,8,11,14-eicosatetraenoic acid] the “agonist activity on human neutrophils” value [3] was “no detectable agonist activity”, the inhibition at 1 µM [4] was 50 ± 4% and the inhibition at 1 µM [5] was 8.9 ± 5.1%. For the same compound, the “inhibition of neutrophil adhesion to gelatin” value ([6]; 10 μM, preincubation) was “completely inhibited”, the inhibition at 1 µM ([6]; gelatin matrix) was 73 ± 11% and the “inhibition of neutrophil adhesion, basal” value [6] was “inhibited neutrophil adhesion in a dose-dependent manner”. The “preincubation time required to inhibit adhesion” value ([6]; gelatin matrix) was 10 min, the “potency of neutrophil inhibition relative to the other stereoisomer” value [6] was “more potent than the effect observed with the opposite stereoisomer” and the inhibition at 1 µM [7, 10] was 42 ± 11%. For the same compound, the IC50 ([7]; Neutrophil, fMLP 5×10^-7 M, diluted human blood, read-out: IC50, inhibition of fMLP-induced neutrophil aggregation) was 1.2 µM.

In the case of `[C-]#[O+]` [carbon monoxide], the “inhibition of formation of polar arachidonic acid metabolites” value [1] is given as “formation can be inhibited”.

In the case of `CCCCC(O)/C=C\C/C=C\C/C=C\C/C=C\CCCC(=O)O` (stereo not shown) [16-HETE, 16-hydroxyeicosatetraenoic acid], the “effect on platelet or other leukocyte activity or function” value [8] is reported as “does not affect platelet or other leukocyte activity or function”.

For `O=C(O)CCC/C=C\C/C=C\C/C=C\C/C=C\CCCCCO` [20-HETE, reference compound], the “agonist activity on human neutrophils” value [3] was “no detectable agonist activity”, the “inhibition of neutrophil aggregation” value [9] was “neither 20-HETE nor 15-HETE inhibited neutrophil aggregation” and the “inhibition of neutrophil adhesion, thrombin-stimulated” value ([4]; thrombin-stimulated, 20-HETE at ≤10 μM, 16-HETE isomers 10^-8 to 10^-5 M) was “did not inhibit neutrophil adhesion”. The inhibition at 1 µM [5] was 3.9 ± 13.4%, the “inhibition of neutrophil adhesion, basal” value [6] was “did not inhibit neutrophil adhesion” and the inhibition at 1 µM [7, 10] was 8.1 ± 2.6%. For the same compound, the “inhibition of fMLP-induced neutrophil aggregation” value [7] was “not active”.

In the case of `CCCC[C@H](O)/C=C\C/C=C\C/C=C\C/C=C\CCCC(=O)O` [16(S)-HETE, S-stereoisomer of 16-hydroxyeicosatetraenoic acid], the “agonist activity on human neutrophils” value [3] is reported as “no detectable agonist activity”, the inhibition at 1 µM [4] is reported as 40 ± 14% and the inhibition at 1 µM [5] is reported as 5.6 ± 16.7%. For the same compound, the inhibition at 1 µM ([6]; gelatin matrix) was 39 ± 8%, the “inhibition of neutrophil adhesion, basal” value [6] was “inhibited neutrophil adhesion in a dose-dependent manner” and the “potency of neutrophil inhibition relative to the other stereoisomer” value [6] was “less potent”. For the same compound, the inhibition at 1 µM [7, 10] was 7 ± 3.5% and the “inhibition of fMLP-induced neutrophil aggregation” value [7] was “not active”.

In the case of `CCCCC[C@H](O)/C=C/C=C\C/C=C\C/C=C\CCCC(=O)O` [15-HETE], the “inhibition of neutrophil aggregation” value [9] is reported as “neither 20-HETE nor 15-HETE inhibited neutrophil aggregation”.
